Test results: US20220401514A1, “ANTIMICROBIAL, BACTERIOPHAGE-DERIVED POLYPEPTIDES AND THEIR USE AGAINST GRAM-NEGATIVE AND ACID-FAST BACTERIA” (CONTRAFECT CORPORATION, priority 2019, published 2022)
Read-outs that look alike come from different tables or passages of the source. Ends that are not written are not given here.

Assays:
M. avium = experiment: 45 hr MIC against M. avium (NTM); assay type: cell-based, Mycobacterium avium; conditions: M. avium Chester ATCC 700898
[1] = tested on: M. kansasii Hauduroy ATCC 12478; experiment: 45 hr MIC against M. kansasii (NTM), Mueller Hinton broth; assay type: cell-based, Mycobacterium kansasii
M. smegmatis = experiment: 45 hr MIC against M. smegmatis (NTM), Mueller Hinton broth; assay type: cell-based, Mycobacterium smegmatis
[2] = tested on: carbapenem-resistant P. aeruginosa clinical isolate CFS-1292; experiment: MIC by modified CLSI broth microdilution against P. aeruginosa CFS-1292 (CAA, CAA + human serum); assay type: cell-based, Pseudomonas aeruginosa; conditions: for MIC (μg/mL) against CFS-1292 in 100% CAA (1st run/2nd run): 1st run or single value
M. intracellulare = experiment: 45 hr MIC against M. intracellulare (NTM); assay type: cell-based, Mycobacterium intracellulare; conditions: M. intracellulare (Cuttino and McCabe) Runyon ATCC 13950
M. scrofulaceum = experiment: 45 hr MIC against M. scrofulaceum (NTM); assay type: cell-based, Mycobacterium scrofulaceum; conditions: M. scrofulaceum Prissick and Masson ATCC 19981
M. fortuitum = experiment: 45 hr MIC against M. fortuitum (NTM); assay type: cell-based, Mycobacterium fortuitum; conditions: M. fortuitum subsp. Fortuitum da Costa Cruz. ATCC 6841
[3] = Stability assessment in 100% CAA; assay type: in vitro ADME; design: unit not given beside the values
Description: Stability was assessed after incubation in 100% human serum at 37° C. after 10 minutes, 1 hour, and 2 hours.
Stability assessment was further conducted in 100% CAA and rabbit serum using the same methodology discussed above.

[4] = tested on: Mycobacterium tuberculosis strains
Description: MIC values for various Chp peptides were determined using the CLSI method for broth microdilution in 96-well microtiter format.
Next, MIC values for various Chp peptides were determined using the CLSI method above for broth microdilution in 96-well microtiter format for two different Mycobacterium tuberculosis strains. The MIC was determined as explained above for the NTM strains.

Klebsiella pneumoniae = assay type: cell-based; conditions: Klebsiella pneumoniae HM-44; CAA supplemented with human serum
Description: (§1) Determination of Minimal Inhibitory Concentrations (MIC).
(§2) Additional MIC testing was performed for several peptides against the ESKAPE pathogens Escherichia coli, Enterobacter cloacae, Klebsiella pneumoniae, and Acinetobacter baumannii, in CAA supplemented with human serum (Table D).

Acinetobacter baumannii = experiment: microbe, parasite or virus in culture; assay type: cell-based; conditions: Acinetobacter baumannii ATCC BAA 747; CAA supplemented with human serum
Enterobacter cloacae = experiment: microbe, parasite or virus in culture; assay type: cell-based; conditions: Enterobacter cloacae ATCC 13047; CAA supplemented with human serum
Description: as §1, §2

Escherichia coli = experiment: microbe, parasite or virus in culture; assay type: cell-based; conditions: Escherichia coli ATCC 25922; CAA supplemented with human serum
Description: as §1, §2

[5] = Mycobacterium tuberculosis (Zopf) Lehmann and Neumann ATCC 35817

Sequence | 45 hr MIC (M. avium) [µg/mL] | 45 hr MIC [1] [µg/mL] | 45 hr MIC (M. smegmatis; M. smegmatis MC^2 155, Run #1) [µg/mL] | 45 hr MIC (M. smegmatis; M. smegmatis MC^2 155, Run #2) [µg/mL] | MIC (μg/mL) against CFS-1292 in 100% CAA (1st run/2nd run) [2] [µg/mL] | MIC (μg/mL) against CFS-1292 in CAA + […] human serum [2] [µg/mL] | 45 hr MIC (M. intracellulare) [µg/mL] | 45 hr MIC (M. scrofulaceum) [µg/mL] | 45 hr MIC (M. fortuitum) [µg/mL] | MIC (100% CAA) [3] | MIC ([4]; Mycobacterium tuberculosis (Zopf) Lehmann and Neumann ATCC 25177) [µg/mL] | MIC [4, 5] [µg/mL] | MIC (Klebsiella pneumoniae) [µg/mL] | MIC (Acinetobacter baumannii) [µg/mL] | MIC (Enterobacter cloacae) [µg/mL] | MIC (Escherichia coli) [µg/mL]
MRRKKMSRGKSKKLFRRTAKRVHRKNLRARPMRGGIRM [AVQ206] | 1 | 2 | 4 | 16 | 0.5 | 0.25 | 4 | 4 | 2 | <0.25 | – | – | – | – | – | –
MIVRRHKMSRRRSRKLFSKTASRTRSKNLRSRPMRGGYRI [Unp4] | 1 | 4 | – | 16 | 2 | >16 | 4 | 4 | 4 | – | 32 | 16 | – | – | – | –
MKPLKRKPVQKARSAAKFRRNVSTVKAANMAVKPMRGGWRF [Fen7875] | 2 | 32 | 4 | 16 | 2 | 2 | 8 | 16 | 8 | 4 | – | – | – | – | – | –
MRRYNVNKGKSAKKFRKQVSKTKVANLRSNPMRGGWRL [AGT915] | >64 | 1 | 4 | 1 | 2 | 0.25 | >64 | >64 | 1 | 2 | – | – | – | – | – | –
MKLTKSDIAYREALGLSTTDPLPAEIGMVTRRANRLKRPRKTARFR [Myo1] | 8 | >64 | >64 | >64 | >64 | – | >64 | – | >64 | – | – | 32 | – | – | – | –
MKMRKRTDKRVFTRTAAKSKKVNIAPKIFRGGIRL [Unp1] | 1 | 8 | 4 | 2 | 4 | 4 | 32 | 8 | 8 | 4 | – | – | 8 | 8 | >32 | 0.5
MRPVKRSRVNKARSAGKFRKQVGKTKMANLRSNPMRGGWRL [HH3930] | 4 | 32 | 4 | 16 | 2 | 4 | 16 | 16 | 8 | 2 | – | – | – | – | – | –
